Test [1] concerns the target T1, recombinant, N-terminally GST-tagged ATAD2 bromodomain amino acids 981-1108 (Homo sapiens, UniProt Q6PL18).
T1 construct: ATAD2 bromodomain amino acids 981-1108; made in house; host or cells: E. coli
T1 sequence (Q6PL18 981-1108): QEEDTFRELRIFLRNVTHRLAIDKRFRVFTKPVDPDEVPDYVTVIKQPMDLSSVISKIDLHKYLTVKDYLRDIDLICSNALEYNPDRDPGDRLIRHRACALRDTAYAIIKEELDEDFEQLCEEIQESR
In words: TR-FRET assay: disruption of the interaction between ATAD2 and acetylated Histone H4 (Ac-H4) peptide. It counts as binding. To be noted: inhibition of ATAD2/Ac-H4 complex formation; 10 nM ATAD2, 50 nM Ac-H4 peptide. In short, it runs like this: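 Read-out is the 665/622 nm TR-FRET ratio after 337 nm excitation, normalized to DMSO and no-protein controls, with IC50 fitted by 4-parameter logistic. Compounds (11 concentrations, 0.1 nM-20 μM) pre-equilibrated 10 min with 10 nM ATAD2, then 1 h at 22 °C with 50 nM Ac-H4 peptide.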
A general note: Time-resolved FRET reads energy transfer from a long-lived donor to a nearby acceptor.

A further test relates to MCF7 breast cancer cells. Put plainly: Cell proliferation assay (alamarBlue), MCF7. It is filed as cell-based. Particulars: Homo sapiens, 72 h incubation, GI50 = half-maximal growth inhibition. The protocol: (§1) The effect of ATAD2 inhibitory compounds on cancer cell proliferation might be measured as below. For example; MCF7 breast cancer cells might be seeded into 96-well microtiter plates at 2000 cells/well in 90 μl cell culture media (RPMI 1640, 10% FCS, 2 mM L-Glutamine, 10 μg/ml human Insulin, […]) and incubated for 24 h at 37° C. and 5% CO2. Note, the culturing conditions might vary from cell line to cell line depending on their standard culturing conditions. Compounds might be then delivered to the microtiter assay plates and, following a 72 h long incubation period at 37° C. and 5% CO2, the viability of the cells might be measured with addition of alamarBlue® (Invitrogen) to the medium in Victor X3 Multilabel Plate Reader (Perkin Elmer).
(§2) GI50 means half-maximal growth inhibition.
Background: Resazurin is reduced to fluorescent resorufin, in cell work by metabolically active cells.

In the next test the test system is NCl-H526 lung cancer. In words: Cell proliferation assay (alamarBlue), NCl-H526. It counts as cell-based. Particulars: GI50 = half-maximal growth inhibition. The protocol:
as §1, §2

Results on six molecules are retold here after patent US10654818B2, “Furane derivatives as inhibitors of ATAD2” (BAYER PHARMA AKTIENGESELLSCHAFT, priority 2015, dated 2020).

For orientation: IC50 means the concentration needed to halve the response being measured. A word on the GI50: it is the concentration giving 50% growth inhibition. A higher GI50 goes with lower sensitivity of the cells.

On to `Cc1ccc([C@@H](C)NCc2ccc(-c3ccc(Cl)c(C(=O)N[C@@H](CNC[C@@H]4[C@H]5CNC[C@@H]45)Cc4ccc(C#N)cc4)c3)o2)cc1` [Example 66, N-[(2R)-1-{[(1R,5S,6r)-3-azabicyclo[3.1.0]hex-6-ylmethyl]amino}-3-(4-cyanophenyl)propan-2-yl]-2-chloro-5-[5-({[(1R)-1-(4-methylphenyl)ethyl]amino}methyl)-2-furyl]benzamide], for which the IC50 in test [1] is 245 nM. Besides, the results for the GI50 with MCF7 breast cancer cells and in the test with NCl-H526 lung cancer were 3760 nM and 5100 nM, respectively.

Consider `Cc1ccc([C@@H](C)NCc2ccc(-c3ccc(Cl)c(C(=O)N[C@@H](CN)Cc4ccc(C#N)cc4)c3)o2)cc1` [Example 53, N-[(2R)-1-amino-3-(4-cyanophenyl)propan-2-yl]-2-chloro-5-[5-({[(1R)-1-(4-methylphenyl)ethyl]amino}methyl)-2-furyl]benzamide], for which the IC50 in test [1] amounted to 273 nM. In addition, the figures for the 50% growth inhibitory concentration (GI50) with MCF7 breast cancer cells and in the test on NCl-H526 lung cancer were 2510 nM and 3600 nM, respectively.

On to `Cc1ccc([C@@H](C)NCc2ccc(-c3ccc(Cl)c(C(=O)N[C@@H](CN[C@H]4CC[C@@H](N)CC4)Cc4ccc(C#N)cc4)c3)o2)cc1` (single isomer, unassigned) [Example 71], for which the IC50 in test [1] is 107 nM. Also, the GI50 in the test on MCF7 breast cancer cells was found to be 3180 nM; in the test with NCl-H526 lung cancer, 1250 nM.

For the molecule `COc1cc(Cl)c(C(=O)N[C@@H](CN[C@H]2CC[C@@H](N)CC2)Cc2ccc(C#N)cc2)cc1-c1ccc(CN[C@H](C)c2ccc(C)cc2)o1` [Example 86, N-[(2R)-1-[(4-aminocyclohexyl)amino]-3-(4-cyanophenyl)propan-2-yl]-2-chloro-4-methoxy-5-[5-({[(1R)-1-(4-methylphenyl)ethyl]amino}methyl)-2-furyl]benzamide], the IC50 in test [1] came out at 166 nM. For the same molecule, the GI50 in the test on MCF7 breast cancer cells is 3200 nM; with NCl-H526 lung cancer it was 2400 nM.

Regarding `COc1cc(Cl)c(C(=O)N[C@@H](CO)Cc2ccc(C#N)cc2)cc1-c1ccc(CN[C@H](C)c2ccc(C)cc2)o1` [Example 81, 2-chloro-N-[(2R)-1-(4-cyanophenyl)-3-hydroxypropan-2-yl]-4-methoxy-5-[5-({[(1R)-1-(4-methylphenyl)ethyl]amino}methyl)-2-furyl]benzamide], in test [1], the IC50 stood at 301 nM. The results for the GI50 in the test with MCF7 breast cancer cells and in the test on NCl-H526 lung cancer were 10400 nM and 10200 nM, respectively.

In the case of `Cc1ccc([C@@H](C)NCc2ccc(-c3ccc(Cl)c(C(=O)N[C@@H](CO)Cc4ccc(C#N)cc4)c3)o2)cc1` [Example 4, 2-chloro-N-[(2R)-1-(4-cyanophenyl)-3-hydroxypropan-2-yl]-5-[5-({[(1R)-1-(4-methylphenyl)ethyl]amino}methyl)-2-furyl]benzamide], in test [1], the IC50 amounted to 393 nM. For the same molecule, the GI50 in the test with MCF7 breast cancer cells was determined as 11500 nM; in the test with NCl-H526 lung cancer it was 15400 nM.
